# Biological target: T1, human EP2 (PTGER2) (Homo sapiens, UniProt P43116)
# T1 construct: Cayman Chemical (Human EP2 Reporter Assay Kit)
# Assay: EP2 antagonist assay (HEK-293 CNG membrane potential cAMP assay / 293T SEAP reporter assay, PGE2-stimulated)
# Type: cell-based
# Conditions: EP2 antagonist activity; concentration for 50% inhibition of signal compared to DMSO
# Description: 1. The HEK-293 CNG (Cyclic Nucleotide Gated) cell line expressing a modified CNG channel that leads to cell membrane depolarization in response to elevated intracellular cAMP levels, which can be measured using a fluorescent membrane potential dye, was engineered to express human EP2 (PTGER2) or EP4 (EP4R). The resulting cell line ACTOne™ PTGER2 or ACTOne™ EP4R as well as the fluorescent membrane potential dye were purchased from eEnzyme (Gaithersburg, MD, US) and used in this assay. Briefly, cells were plated at 1.2×10^4 cells/well in 20 μL DMEM supplemented with 2% Fetal Bovine Serum (FBS, VWR International), 1x Penicillin/Streptomycin (GenClone), 0.2 μg/mL puromycin (InvivoGen) and 50 μg/mL G418 (InvivoGen) on a 384 well plate (Greiner). The next day, cells were dye-loaded with 20 μL/well of 1x Dye-loading solution (eENZYME) following the manufacturer's instruction. After 2 hours of incubation at room temperature (RT) in the dark, a pre-read was made to obtain the background signals using CLARIOstar plate reader (BMG LABTECH, Germany) with the following filter settings: excitation=530/20 nm, emission=590/20 nm. Next, a serial dilution of compound (plus a DMSO control) were added to the plate (5 μL/well) and the reaction was incubated at RT for 15 min before adding 5 μL of PGE2 to every well for a final concentration of 5 nM. All wells were duplicated. The plate was then further incubated at RT for 30 min prior to a final read with the same machine settings. Background-subtracted signals were used to calculate IC50 values.
# 2. Human EP2 and EP4 Reporter Assay Kits were purchased from Cayman Chemical (Ann Arbor, MI, USA). The assay was performed following the provided User Manual. Briefly, a reverse transfection was performed by seeding 6.0×10^4 of 293T cells (ATCC) to each well of the provided Strip Plate coated with a proprietary transfection complex containing DNA constructs for expressing human EP2 or EP4 and a cAMP response element regulated secreted alkaline phosphatase (SEAP) reporter, in 200 μL DMEM supplemented with 2% FBS and incubated for 20-24 hours at 37° C. with 5% CO2. After the incubation, the culture medium was carefully removed, and the cells were replenished with 150 μL pre-warmed serum-free medium. PGE2 and test compounds were prepared together at 4x the desired final concentration, and 50 μL was added to each assigned well with the final concentration of 13 nM and 2 nM PGE2 for EP2 and EP4 assay, respectively. After 6-8 hours of incubation, 10 μL media from each well was transferred to corresponding well of a new plate, which was then sealed and incubated at 65° C. for 30 min. The plate was then cooled down to RT and 50 μL SEAP substrate was added to each well. Luminescence signal was measured using a CLARIOstar plate reader.
# The IC50 value was determined as the concentration for 50% inhibition of signal compared to DMSO (A: IC50 […]; B: IC50 between 100 nM and 1,000 nM; C: IC50≥1,000 nM).
# T1 sequence (P43116 whole entry): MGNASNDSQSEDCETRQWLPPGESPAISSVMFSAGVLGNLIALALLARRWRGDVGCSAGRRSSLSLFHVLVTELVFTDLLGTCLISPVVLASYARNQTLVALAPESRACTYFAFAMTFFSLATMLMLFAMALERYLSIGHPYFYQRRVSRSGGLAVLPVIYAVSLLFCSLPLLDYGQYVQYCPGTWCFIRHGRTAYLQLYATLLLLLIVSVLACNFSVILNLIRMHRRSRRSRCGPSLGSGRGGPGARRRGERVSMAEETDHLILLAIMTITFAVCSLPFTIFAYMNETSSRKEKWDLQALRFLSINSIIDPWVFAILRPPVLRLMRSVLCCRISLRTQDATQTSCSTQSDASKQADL
row,Compound,IC50
1,C[C@H](NC(=O)c1cc(-c2ccc(F)c(F)c2)cc2ccn(Cc3ccc(C(F)(F)F)cc3)c12)c1ccc(C(=O)O)cc1 [Example 53],< 100 nM
2,"O=C(O)c1ccc(CNC(=O)c2ccc(N3CCOCC3)c3ccn(Cc4ccc(C(F)(F)F)cc4)c23)cc1 [Example 58, 4-((4-morpholino-1-(4-(trifluoromethyl)benzyl)-1H-indole-7-carboxamido)methyl)benzoic acid]",≥ 1000 nM
3,"CN1CCN(c2ccc(C(=O)NCc3ccc(C(=O)O)cc3)c3c2ccn3Cc2ccc(C(F)(F)F)cc2)CC1 [Example 59, 4-((4-(4-methylpiperazin-1-yl)-1-(4-(trifluoromethyl)benzyl)-1H-indole-7-carboxamido)methyl)benzoic acid]",≥ 1000 nM
4,"N#Cc1ccc(Nc2ccc(C(=O)NC3(c4ccc(C(=O)O)cc4)CC3)c3c2ccn3Cc2ccc(C(F)(F)F)cc2)cc1 [Example 62, 4-(1-(4-((4-cyanophenyl)amino)-1-(4-(trifluoromethyl)benzyl)-1H-indole-7-carboxamido)cyclopropyl)benzoic acid]",≥ 1000 nM
5,"O=C(O)c1ccc(C2(NC(=O)c3ccc(Nc4cccc(F)c4)c4ccn(Cc5ccc(C(F)(F)F)cc5)c34)CC2)cc1 [Example 67, 4-(1-(4-((3-fluorophenyl)amino)-1-(4-(trifluoromethyl)benzyl)-1H-indole-7-carboxamido)cyclopropyl)benzoic acid]",< 100 nM
6,"O=C(O)c1ccc(CNC(=O)c2ccc(Nc3ccc(Cl)c(F)c3)c3ccn(Cc4ccc(C(F)(F)F)cc4)c23)cc1 [Example 71, ((4-((4-chloro-3-fluorophenyl)amino)-1-(4-(trifluoromethyl)benzyl)-1H-indole-7-carboxamido)methyl)benzoic acid acid]",100 to 1000 nM
7,"O=C(O)c1ccc(CNC(=O)c2cc(-c3cccc(Cl)c3)cc3ccn(Cc4ccc(C(F)(F)F)cc4)c23)cc1 [Example 75, 4-((5-(3-chlorophenyl)-1-(4-(trifluoromethyl)benzyl)-1H-indole-7-carboxamido)methyl)benzoic acid]",< 100 nM
8,"N#Cc1cc(-c2cc(C(=O)NCc3ccc(C(=O)O)cc3)c3c(ccn3Cc3ccc(C(F)(F)F)cc3)c2)ccc1F [Example 79, 4-((5-(3-cyano-4-fluorophenyl)-1-(4-(trifluoromethyl)benzyl)-1H-indole-7-carboxamido)methyl)benzoic]",100 to 1000 nM
9,"N#Cc1ccc(-c2cc(C(=O)NCc3ccc(C(=O)O)cc3)c3c(ccn3Cc3ccc(C(F)(F)F)cc3)c2)cc1 [Example 81, 4-((5-(4-cyanophenyl)-1-(4-(trifluoromethyl)benzyl)-1H-indole-7-carboxamido)methyl)benzoic acid]",< 100 nM
10,"NC(=O)c1cccc(-c2cc(C(=O)NCc3ccc(C(=O)O)cc3)c3c(ccn3Cc3ccc(C(F)(F)F)cc3)c2)c1 [Example 82, 4-((5-(3-carbamoylphenyl)-1-(4-(trifluoromethyl)benzyl)-1H-indole-7-carboxamido)methyl)benzoic acid]",< 100 nM
11,"CS(=O)(=O)c1cccc(-c2cc(C(=O)NCc3ccc(C(=O)O)cc3)c3c(ccn3Cc3ccc(C(F)(F)F)cc3)c2)c1 [Example 84, 4-((5-(3-(methylsulfonyl)phenyl)-1-(4-(trifluoromethyl)benzyl)-1H-indole-7-carboxamido)methyl)benzoic acid]",< 100 nM
12,"O=C(O)c1ccc(CNC(=O)c2cc(-c3ccccc3C(F)(F)F)cc3ccn(Cc4ccc(C(F)(F)F)cc4)c23)cc1 [Example 89, 4-((1-(4-(trifluoromethyl)benzyl)-5-(2-(trifluoromethyl)phenyl)-1H-indole-7-carboxamido)methyl)benzoic acid]",100 to 1000 nM

# More lines, now with the values ahead:
row,IC50,Compound
1,< 100 nM,"C[C@H](NC(=O)c1cc(-c2cc(F)cc(F)c2)cc2ccn(Cc3ccc(C(F)(F)F)cc3)c12)c1ccc(C(=O)O)cc1 [Example 54, (S)-4-(1-(5-(3,5-difluorophenyl)-1-(4-(trifluoromethyl)benzyl)-1H-indole-7-carboxamido)ethyl) benzoic acid]"
2,100 to 1000 nM,"N#Cc1cccc(Nc2ccc(C(=O)NC3(c4ccc(C(=O)O)cc4)CC3)c3c2ccn3Cc2ccc(C(F)(F)F)cc2)c1 [Example 61, 4-(1-(4-((3-cyanophenyl)amino)-1-(4-(trifluoromethyl)benzyl)-1H-indole-7-carboxamido)cyclopropyl)benzoic acid]"
3,100 to 1000 nM,"O=C(O)c1ccc(C2(NC(=O)c3ccc(Nc4ccc(F)c(F)c4)c4ccn(Cc5ccc(C(F)(F)F)cc5)c34)CC2)cc1 [Example 63, 4-(1-(4-((3,4-difluorophenyl)amino)-1-(4-(trifluoromethyl)benzyl)-1H-indole-7-carboxamido)cyclopropyl)benzoic acid]"
4,< 100 nM,"O=C(O)c1ccc(C2(NC(=O)c3ccc(Nc4ccc(F)cc4)c4ccn(Cc5ccc(C(F)(F)F)cc5)c34)CC2)cc1 [Example 64, 4-(1-(4-((4-fluorophenyl)amino)-1-(4-(trifluoromethyl)benzyl)-1H-indole-7-carboxamido)cyclopropyl)benzoic acid]"
5,100 to 1000 nM,"O=C(O)c1ccc(C2(NC(=O)c3ccc(Nc4ccc(F)c(Cl)c4)c4ccn(Cc5ccc(C(F)(F)F)cc5)c34)CC2)cc1 [Example 65, 4-(1-(4-((3-chloro-4-fluorophenyl)amino)-1-(4-(trifluoromethyl)benzyl)-1H-indole-7-carboxamido)cyclopropyl)benzoic acid]"
6,100 to 1000 nM,"O=C(O)c1ccc(C2(NC(=O)c3ccc(Nc4cc(F)cc(F)c4)c4ccn(Cc5ccc(C(F)(F)F)cc5)c34)CC2)cc1 [Example 66, 4-(1-(4-((3,5-difluorophenyl)amino)-1-(4-(trifluoromethyl)benzyl)-1H-indole-7-carboxamido)cyclopropyl)benzoic acid]"
7,< 100 nM,"N#Cc1cccc(Nc2ccc(C(=O)NCc3ccc(C(=O)O)cc3)c3c2ccn3Cc2ccc(C(F)(F)F)cc2)c1 [Example 68, 4-((4-((3-cyanophenyl)amino)-1-(4-(trifluoromethyl)benzyl)-1H-indole-7-carboxamido)methyl)benzoic acid]"
8,< 100 nM,O=C(O)c1ccc(CNC(=O)c2ccc(Nc3ccc(F)c(Cl)c3)c3ccn(Cc4ccc(C(F)(F)F)cc4)c23)cc1 [Example 70]
9,< 100 nM,"O=C(O)c1ccc(CNC(=O)c2ccc(Nc3cccc(F)c3)c3ccn(Cc4ccc(C(F)(F)F)cc4)c23)cc1 [Example 72, 4-((4-((3-fluorophenyl)amino)-1-(4-(trifluoromethyl)benzyl)-1H-indole-7-carboxamido)methyl)benzoic acid]"
10,100 to 1000 nM,"O=C(O)c1ccc(CNC(=O)c2ccc(Nc3ccc(Cl)cc3)c3ccn(Cc4ccc(C(F)(F)F)cc4)c23)cc1 [Example 73, ((4-((4-chlorophenyl)amino)-1-(4-(trifluoromethyl)benzyl)-1H-indole-7-carboxamido)methyl)benzoic acid]"
11,< 100 nM,"NS(=O)(=O)c1cccc(-c2cc(C(=O)NCc3ccc(C(=O)O)cc3)c3c(ccn3Cc3ccc(C(F)(F)F)cc3)c2)c1 [Example 83, 4-((5-(3-sulfamoylphenyl)-1-(4-(trifluoromethyl)benzyl)-1H-indole-7-carboxamido)methyl)benzoic acid]"
12,< 100 nM,"O=C(O)c1ccc(CNC(=O)c2cc(-c3ccccc3O)cc3ccn(Cc4ccc(C(F)(F)F)cc4)c23)cc1 [Example 86, 4-((5-(2-hydroxyphenyl)-1-(4-(trifluoromethyl)benzyl)-1H-indole-7-carboxamido)methyl)benzoic acid]"
13,100 to 1000 nM,"O=C(O)c1ccc(CNC(=O)c2cc(-c3cc(Cl)cc(Cl)c3)cc3ccn(Cc4ccc(C(F)(F)F)cc4)c23)cc1 [Example 88, 4-((5-(3,5-dichlorophenyl)-1-(4-(trifluoromethyl)benzyl)-1H-indole-7-carboxamido)methyl)benzoic acid]"
14,< 100 nM,"O=C(O)c1ccc(CNC(=O)c2cc(-c3ccccc3Cl)cc3ccn(Cc4ccc(C(F)(F)F)cc4)c23)cc1 [Example 90, 4-((5-(2-chlorophenyl)-1-(4-(trifluoromethyl)benzyl)-1H-indole-7-carboxamido)methyl)benzoic acid]"

# From patent US20250179017A1 (GUANGDONG NEWOPP BIOPHARMACEUTICALS CO., LTD., priority 2022, published 2025)
